In PMC13266984 (Journal of medicinal chemistry, 2026):
pIC50: −log10 of the molar value. Several values for one entry are separate records, joined by “and”; a condition that tells them apart may be missing. Equal values may be shown once.

Tests used:
[1] = target: T1, Human ALDH3A1 (Homo sapiens, UniProt P30838); test: ALDH3A1 biochemical assay (benzaldehyde/NADP+, diaphorase-resazurin readout, 1,536-well); details: for IC50: 20X[SUB] IC50 [µM], benzaldehyde 4,000 µM (~20× Km), NADP+ 1,000 µM; for IC50Ratio: 20X[SUB] vs 1X[SUB] benzaldehyde; for pIC50: ALDH3A1 biochemical IC50; for Efficacy: Table S5, biochemical; for CC-v2: Table S5, biochemical curve class; for LLE: Table S7, pAC50 − cLogP; for inhibition mechanism (benzaldehyde substrate shift): retested at 4,000 μM benzaldehyde
T1 sequence (P30838 1-453): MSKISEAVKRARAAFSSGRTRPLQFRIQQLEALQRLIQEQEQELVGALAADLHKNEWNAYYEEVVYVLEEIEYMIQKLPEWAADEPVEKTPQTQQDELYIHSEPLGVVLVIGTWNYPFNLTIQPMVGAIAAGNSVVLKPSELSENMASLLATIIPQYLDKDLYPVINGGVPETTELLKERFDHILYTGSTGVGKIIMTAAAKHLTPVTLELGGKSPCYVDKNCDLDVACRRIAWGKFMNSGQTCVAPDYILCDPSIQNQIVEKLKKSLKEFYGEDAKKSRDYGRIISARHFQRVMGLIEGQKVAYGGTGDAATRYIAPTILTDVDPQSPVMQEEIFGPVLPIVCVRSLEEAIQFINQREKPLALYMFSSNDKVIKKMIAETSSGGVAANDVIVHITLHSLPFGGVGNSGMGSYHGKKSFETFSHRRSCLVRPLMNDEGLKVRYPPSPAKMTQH

[2] = pION μSOL kinetic aqueous solubility; type: physicochemical; details: in words; pH7.4
[3] = target: T2, OE19 (3A1) (Homo sapiens, UniProt P30838); test: Cellular ALDEFLUOR assay in OE19 cells (preferential ALDH3A1 expression); details: for Cell_Efficacy: Table S5, OE19 cells; for Cell_CC-v2: Table S5, cellular curve class; for pIC50: cellular IC50 (Aldefluor), OE19 cells
T2 sequence (P30838 1-453): T1 sequence (P30838 1-453)

[4] = Metabolic stability in rat liver microsome fractions; type: in vitro ADME; details: in words

| AC50 [1] [nM] | IC50 [1] [µM] | IC50Ratio [1] | pIC50 [1] | Efficacy [1] | CC-v2 [1] | LLE [1] | kinetic aqueous solubility [2] | AC50 [3] [nM] | Cell_Efficacy [3] | Cell_CC-v2 [3] | pIC50 [3] | microsomal stability [4] | SMILES | inhibition mechanism (benzaldehyde substrate shift) [1] |
| --- | --- | --- | --- | --- | --- | --- | --- | --- | --- | --- | --- | --- | --- | --- |
| 1.1 | 0.0316 | 28 | 9.00 | -107.26 | -1.1 | 3.663 | limited kinetic aqueous solubility | 13.6 | -65.41 | -1.2 | 7.87 and 7.85 and ~7.85 | – | O=C(NCc1cccc(C2CC2)c1)c1csc(N2CCN(c3cccc(C(F)(F)F)c3)CC2)n1 [Compound 13] | consistent with substrate-competitive inhibition |
| 17.8 | – | – | – | -100.27 | -1.1 | – | – | 1530 | -119.85 | -2.1 | – | – | O=C(NCc1cccc(Oc2ccccc2)c1)c1csc(N2CCN(c3cccc(C(F)(F)F)c3)CC2)n1 [NCGC01407978-01] | – |
| 23.7 | – | – | – | -97.73 | -1.1 | – | – | 811 | -88.39 | -1.2 | – | – | O=C(NCc1cccc(Cl)c1)c1csc(N2CCN(c3cccc(C(F)(F)F)c3)CC2)n1 [NCGC01407982-01] | – |
| 75 | – | – | – | -78.48 | -1.2 | – | – | 91 | -83.99 | -1.1 | – | – | Cc1ccccc1-c1cccc(CNC(=O)c2csc(N3CCN(c4cccc(C(F)(F)F)c4)CC3)n2)c1 [NCGC01407985-01] | – |
| 562 | – | – | – | -31.39 | -1.2 | – | – | 501 | -92.16 | -1.1 | – | – | O=C(NCCc1cccc(OCCCc2ccccc2)c1)c1csc(N2CCN(c3cccc(C(F)(F)F)c3)CC2)n1 [NCGC01407986-01] | – |

Second part, the compound before the results:

| SMILES | AC50 [1] [nM] | IC50 [1] [µM] | IC50Ratio [1] | pIC50 [1] | Efficacy [1] | CC-v2 [1] | LLE [1] | kinetic aqueous solubility [2] | AC50 [3] [nM] | Cell_Efficacy [3] | Cell_CC-v2 [3] | pIC50 [3] | microsomal stability [4] | inhibition mechanism (benzaldehyde substrate shift) [1] |
| --- | --- | --- | --- | --- | --- | --- | --- | --- | --- | --- | --- | --- | --- | --- |
| Cc1nc(-c2cccc(CNC(=O)c3csc(N4CCN(c5cccc(C(F)(F)F)c5)CC4)n3)c2)cs1 [Compound 14] | 31.6 | 1 | 32 | 7.50 and 7.49 and ~7.49 | -99.22 | -1.1 | 1.65 | limited kinetic aqueous solubility | 3.8 | -94.02 | -1.1 | 8.40 and 8.42 and ~8.40 | only moderate microsomal stability | consistent with substrate-competitive inhibition |
| O=C(Nc1ccc(CNC(=O)c2csc(N3CCN(c4cccc(C(F)(F)F)c4)CC3)n2)cc1)c1ccc(F)cc1 [NCGC01407975-01] | 355 | – | – | – | -39.06 | -1.2 | – | – | 100 | -85.75 | -1.1 | – | – | – |
| O=C(NCc1cccc(C(=O)N2CCCCC2)c1)c1csc(N2CCN(c3cccc(C(F)(F)F)c3)CC2)n1 [NCGC01407977-01] | – | – | – | – | -16.69 | 4 | – | – | 50100 | -33.22 | 5 | – | – | – |
| N#CSc1ccc(NC(=O)c2csc(N3CCN(c4cccc(C(F)(F)F)c4)CC3)n2)c(F)c1 [NCGC01407980-01] | 15800 | – | – | – | -102.93 | -1.1 | – | – | 44.7 | -75.54 | -1.2 | – | – | – |
| O=C(NCc1ccc(C(F)F)c(F)c1)c1csc(N2CCN(c3cccc(C(F)(F)F)c3)CC2)n1 [NCGC01407984-01] | 14.1 | – | – | – | -99.03 | -1.1 | – | – | 242 | -105.03 | -2.2 | – | – | – |
| CC(C)(O)c1ccc(CNC(=O)c2csc(N3CCN(c4cccc(C(F)(F)F)c4)CC3)n2)cc1 [NCGC01408044-01] | 891 | – | – | – | -74.78 | -1.2 | – | – | 11.2 | -68.37 | 5 | – | – | – |
| Cc1ccc(C)n1-c1ccc(CNC(=O)c2csc(N3CCN(c4cccc(C(F)(F)F)c4)CC3)n2)cc1 [NCGC01408046-01] | 15800 | – | – | – | -91.30 | -1.1 | – | – | – | -23.84 | 4 | – | – | – |
